Assay results published in PubChem BioAssay AID1963871 (Molecular Pharmacology Branch, DTP, NCI, 2024).

Tested on: KRAS-mutant PDC multicell tumor spheroid viability
Test: Anticancer human tumor 521955-158-R2-J5-PDC patient-derived pancreatic carcinoma cell line growth inhibition [KRAS2]
Details: for IC50: curve of first compound; for viability, T/C: stronger effect = lower value
How it was run: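 Combination screen of spheroid viability in tumor-cell co-cultures with endothelial (HUVEC) and mesenchymal stem cell stroma. Each agent was tested in half-log dilutions, topping at clinical Cmax or at 10 microM without a known Cmax.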

[1] = second compound 0.1 µM, first compound 0.01 µM
[2] = second compound 0.1 µM, first compound 0.0316 µM
[3] = second compound 0.1 µM, first compound 0.1 µM
[4] = second compound 0.1 µM, first compound 0.316 µM
[5] = second compound 0.1 µM, first compound 1 µM
[6] = second compound 0.1 µM, first compound 3.16 µM
[7] = second compound 0.316 µM, first compound 0.01 µM
[8] = second compound 0.316 µM, first compound 0.0316 µM
[9] = second compound 0.316 µM, first compound 0.1 µM
[10] = second compound 0.316 µM, first compound 0.316 µM
[11] = second compound 0.316 µM, first compound 1 µM
[12] = second compound 0.316 µM, first compound 3.16 µM
[13] = second compound 1 µM, first compound 0.01 µM
[14] = second compound 1 µM, first compound 0.0316 µM
[15] = second compound 1 µM, first compound 0.1 µM
[16] = second compound 1 µM, first compound 0.316 µM
[17] = second compound 1 µM, first compound 1 µM
[18] = second compound 1 µM, first compound 3.16 µM
[19] = second compound 3.16 µM, first compound 0.01 µM
[20] = second compound 3.16 µM, first compound 0.0316 µM
[21] = second compound 3.16 µM, first compound 0.1 µM
[22] = second compound 3.16 µM, first compound 0.316 µM
[23] = second compound 3.16 µM, first compound 1 µM
[24] = second compound 3.16 µM, first compound 3.16 µM
[25] = second compound 10 µM, first compound 0.01 µM
[26] = second compound 10 µM, first compound 0.0316 µM
[27] = second compound 10 µM, first compound 0.1 µM
[28] = second compound 10 µM, first compound 0.316 µM
[29] = second compound 10 µM, first compound 1 µM
[30] = second compound 10 µM, first compound 3.16 µM
[31] = second compound 0.1 µM, first compound 10 µM
[32] = second compound 0.316 µM, first compound 10 µM
[33] = second compound 1 µM, first compound 10 µM
[34] = second compound 3.16 µM, first compound 10 µM
[35] = second compound 10 µM, first compound 10 µM
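Also: viability read after seven days of drug exposure.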

Structure (SMILES)	IC50 (second compound 0.1 µM) [nM]	IC50 (second compound 0.316 µM) [nM]	IC50 (second compound 1 µM) [nM]	IC50 (second compound 3.16 µM) [nM]	IC50 (second compound 10 µM) [nM]	viability, T/C [2] [%]	viability, T/C [3] [%]	viability, T/C [4] [%]	viability, T/C [5] [%]	viability, T/C [6] [%]	viability, T/C [8] [%]	viability, T/C [9] [%]	viability, T/C [10] [%]	viability, T/C [11] [%]	viability, T/C [14] [%]	viability, T/C [15] [%]	viability, T/C [20] [%]	viability, T/C [21] [%]	viability, T/C [26] [%]	viability, T/C [27] [%]	other results
CC(=O)OC12COC1CC(O)C1(C)C(=O)C(O)C3=C(C)C(OC(=O)C(O)C(NC(=O)OC(C)(C)C)c4ccccc4)CC(O)(C(OC(=O)c4ccccc4)C21)C3(C)C (stereo not given) + CC1OCC2(CCN(c3cnc(Sc4ccnc(N)c4Cl)c(N)n3)CC2)C1N	< 10	< 10	< 10	< 10	< 10	15.3	11.9	14.5	16.1	19.7	15.3	14	11.1	17.7	13	11.2	15.9	14.5	15.9	15.2	viability, T/C [1]: 26.4%; viability, T/C [7]: 25.1%; viability, T/C [12]: 18.2%; viability, T/C [13]: 19.7%; viability, T/C [16]: 13.1%; viability, T/C [17]: 15.6%; viability, T/C [18]: 20.7%; viability, T/C [19]: 21.2%; viability, T/C [22]: 12.7%; viability, T/C [23]: 19.5%; viability, T/C [24]: 23.2%; viability, T/C [25]: 22.1%; viability, T/C [28]: 17.3%; viability, T/C [29]: 14.6%; viability, T/C [30]: 22.3%
CN(C)C/C=C/C(=O)Nc1cc2c(Nc3ccc(F)c(Cl)c3)ncnc2cc1O[C@H]1CCOC1 + CC1OCC2(CCN(c3cnc(Sc4ccnc(N)c4Cl)c(N)n3)CC2)C1N	> 100	> 100	> 100	< 0.316	> 100	81.9	59.3	–	–	–	63.5	58.2	–	–	78.6	73.1	65.2	64.5	80.8	80.3	viability, T/C (second compound 0.1 µM, first compound 0.000316 µM): 71.7%; viability, T/C (second compound 0.1 µM, first compound 0.001 µM): 66.5%; viability, T/C (second compound 0.1 µM, first compound 0.00316 µM): 56.3%; viability, T/C [1]: 73.4%; viability, T/C (second compound 0.316 µM, first compound 0.000316 µM): 60.5%; viability, T/C (second compound 0.316 µM, first compound 0.001 µM): 70.3%; viability, T/C (second compound 0.316 µM, first compound 0.00316 µM): 57.3%; viability, T/C [7]: 57.6%; viability, T/C (second compound 1 µM, first compound 0.000316 µM): 112%; viability, T/C (second compound 1 µM, first compound 0.001 µM): 107%; viability, T/C (second compound 1 µM, first compound 0.00316 µM): 85.3%; viability, T/C [13]: 75.5%; viability, T/C (second compound 3.16 µM, first compound 0.000316 µM): 28%; viability, T/C (second compound 3.16 µM, first compound 0.001 µM): 37%; viability, T/C (second compound 3.16 µM, first compound 0.00316 µM): 37.2%; viability, T/C [19]: 49%; viability, T/C (second compound 10 µM, first compound 0.000316 µM): 105%; viability, T/C (second compound 10 µM, first compound 0.001 µM): 90%; viability, T/C (second compound 10 µM, first compound 0.00316 µM): 85.8%; viability, T/C [25]: 79.9%
COC(=O)c1ccc2c(C(=Nc3ccc(N(C)C(=O)CN4CCN(C)CC4)cc3)c3ccccc3)c(O)[nH]c2c1 + CC1OCC2(CCN(c3cnc(Sc4ccnc(N)c4Cl)c(N)n3)CC2)C1N	2490	1800	1070	1080	1120	79.4	80.7	72.9	80.8	42.5	66.3	70.5	60	85.4	46.8	46.7	56	58.6	61.1	58.3	viability, T/C [31]: 0.38%; viability, T/C [12]: 30.1%; viability, T/C [32]: 0.37%; viability, T/C [16]: 55.9%; viability, T/C [17]: 57%; viability, T/C [18]: 26.6%; viability, T/C [33]: 0.4%; viability, T/C [22]: 58%; viability, T/C [23]: 51.7%; viability, T/C [24]: 23.2%; viability, T/C [34]: 0.51%; viability, T/C [28]: 64.3%; viability, T/C [29]: 55.4%; viability, T/C [30]: 0.64%; viability, T/C [35]: 0.38%
O=C(c1cc(Cc2n[nH]c(=O)c3ccccc23)ccc1F)N1CCN(C(=O)C2CC2)CC1 + CC1OCC2(CCN(c3cnc(Sc4ccnc(N)c4Cl)c(N)n3)CC2)C1N	> 10000	< 31.6	> 10000	< 31.6	725	67.2	71.2	57.2	55	53.3	48.7	48.6	46.8	49.1	106	118	30.4	35.5	43.2	44.3	viability, T/C [31]: 58%; viability, T/C [12]: 49.8%; viability, T/C [32]: 40.2%; viability, T/C [16]: 92.3%; viability, T/C [17]: 83.9%; viability, T/C [18]: 74.1%; viability, T/C [33]: 56.8%; viability, T/C [22]: 37.9%; viability, T/C [23]: 35.9%; viability, T/C [24]: 38.6%; viability, T/C [34]: 33.6%; viability, T/C [28]: 86.8%; viability, T/C [29]: 46.9%; viability, T/C [30]: 44%; viability, T/C [35]: 39.3%
